Test results: US5091403A, “Sulfinyl imidazole derivatives and antiulcer agents containing the same” (Nippon Chemiphar Co., Ltd., priority 1989, dated 1992)
Read-outs that look alike come from different tables or passages of the source.

Tests used:
[1] = molecular target: T1, H^+ +K^+ ATPase (Oryctolagus cuniculus, UniProt P27112); test: H^+ +K^+ ATPase Inhibitory Effects (Test 2); assay type: biochemical, rabbit; conditions: read-out: H^+ + K^+ ATPase inhibitory action IC50
T1 construct: a rabbit gastric mucosa were isolated; from tissue; host or cells: rabbit gastric mucosa; vesicles from a discontinuous Ficoll gradient
Description: (§1) Following the method of Forte et al (J. Applied Physiol., 32, 714.717 (1972)), a rabbit gastric mucosa were isolated. A vesicle containing H^+ +K^+ ATPase was prepared by centrifuging the cells in Ficoll of discontinuous density gradient according to G. Saccomani et al (Biochim. Biophys. Acta, 465. 311-330 (1977)). After the enzyme was incubated at room temperature for 25 min. in 0.5 ml of a solution which contained 5 mM of an imidazole buffer (pH 6.0) and 2 × 10^-4 M of 2-[2-(2-methoxyethylamino)benzylsulfinyl] imidazole (the compound of Example 1; the test compound), the mixture was heated to 37° C. The mixture was then allowed to stand for further 5 min. To the mixture was added 0.5 ml of a solution which contained 4 mM of magnesium chloride, 80 mM of an imidazole buffer (pH 7.4), 20 mM of potassium chloride and 4 mM of ATP. The resulting mixture was reacted at 37° C. for 15 min. and 1 ml of 24 % trichloroacetic acid was then added to terminate the reaction. The inorganic phosphorus liberated was quantitatively determined by the method proposed by Taussky and Shorr (J. Biol. Chem., 202, 675-685 (1953)).
(§2) The above procedure was repeated except for not using potassium chloride to determine […] in the absence of potassium chloride. The desired K^+ -dependent ATPase activity was calculated by subtracting the ATPase activity value determined in the absence of KCl from the ATPase activity value determined in the presence of KCl.
the enzyme was prepared in the same manner described in the above Test 1. After the enzyme was incubated at room temperature for 25 min. in 0.5 ml of a solution which contained 5 mM of an imidazole buffer (pH 6.0 or pH 7.4) and various concentrations of test compound, the mixture was heated to 37° C. The mixture was then allowed to stand for further 5 min. The value of H^+ +K^+ ATPase inhibitory action of each test compound was determined int he same manner described in the above Test 1.

[2] = molecular target: T1, H^+ +K^+ ATPase; test: H^+ +K^+ ATPase Inhibitory Effects (Test 1); assay type: biochemical, rabbit; conditions: 2 × 10^-4 M test compound; incubation at pH 6.0, 25 min, room temperature; read-out: value of H^+ +K^+ ATPase inhibitory action
Description: as §1, with “The resulting mixture was reacted at 37° C. for 15 min. and 1 ml of 24 % trichloroacetic acid was then added to terminate the reaction.” left out
as §2

[3] = system: secretion of gastric acid; test: Inhibitory action against the secretion of gastric acid (Test I), pylorus-ligated rats; assay type: in vivo, rat (male Donryu); conditions: intraduodenally, 4 hours, vs vehicle control
Description: Male Donryu rats having a body weight of 200 to 250 g were fasted (while allowing free access to water) for 24 hrs. in accordance with the conventional method [Shay, H. et al, Gastroenterology, 5, 43.61 (1945)]. Under ether anesthesia the pylorus was ligated and 2-[2-(2-methoxyethylamino)benzylsulfinyl] imidazole (the compound of Example 1; the test compound) was administered intraduodenally. Four hours later, each rat was killed and the stomach was removed to collect the gastric juice. The inhibitory action was determined by comparing the acid output which was determined by titration to pH 7.0 with 0.1.N sodium hydroxide by means of an automatic titrator, with the corresponding value of a control rat prepared in the same manner except that a vehicle alone was administered.

[4] = system: secretion of gastric acid; test: Inhibitory action against the secretion of gastric acid (Test II), Heidenhain pouch dogs, histamine, intravenous; assay type: in vivo, dog (male beagle); conditions: 3 mg/kg, intravenously, one hour after initiation of histamine; 30 min post-drug vs pre-drug
Description: (§3) Heidenhain pouch dogs produced from male beagle dogs were fasted. To the dogs were then administered intra venously histamine hydrochloride (gastric juice secretion inducing agent) continuously at a dose of 160 μg/kg/hr. The gastric juice was collected at an interval of 15 min. to measure the amount of gastric juice and acid output to determine an acid secretion amount (mEq/15 min).
The test compound was intravenously administered to the dogs at one hour after the initiation of histamine ad ministration.
The inhibitory action was determined by comparing the acid secretion amount between pre-drug value (just before drug administration) and post-drug value (30 min. after drug administration).

[5] = system: secretion of gastric acid; test: Inhibitory action against the secretion of gastric acid (Test II, other experiment), Heidenhain pouch dogs, histamine, oral; assay type: in vivo, dog (male beagle); conditions: orally, 2 hours before initiation of histamine, vs vehicle control dog
Description: as §3
At the other experiment, the test compounds mere administrated orally 2 hours before the initiation of histamine administration, and the inhibitory action was determined by comparing the acid secretion amount wit the corresponding amount of a control dog prepared in the same manner except that a vehicle alone was administered.

[6] = Acute toxicity test; assay type: in vivo, rat (male SD); conditions: orally, observed for 2 days
Description: Male SD rats having a body weight of about 190 g were orally administered with compound of Example 8. The rats were then observed for 2 days.

T1 sequence (P27112 whole entry): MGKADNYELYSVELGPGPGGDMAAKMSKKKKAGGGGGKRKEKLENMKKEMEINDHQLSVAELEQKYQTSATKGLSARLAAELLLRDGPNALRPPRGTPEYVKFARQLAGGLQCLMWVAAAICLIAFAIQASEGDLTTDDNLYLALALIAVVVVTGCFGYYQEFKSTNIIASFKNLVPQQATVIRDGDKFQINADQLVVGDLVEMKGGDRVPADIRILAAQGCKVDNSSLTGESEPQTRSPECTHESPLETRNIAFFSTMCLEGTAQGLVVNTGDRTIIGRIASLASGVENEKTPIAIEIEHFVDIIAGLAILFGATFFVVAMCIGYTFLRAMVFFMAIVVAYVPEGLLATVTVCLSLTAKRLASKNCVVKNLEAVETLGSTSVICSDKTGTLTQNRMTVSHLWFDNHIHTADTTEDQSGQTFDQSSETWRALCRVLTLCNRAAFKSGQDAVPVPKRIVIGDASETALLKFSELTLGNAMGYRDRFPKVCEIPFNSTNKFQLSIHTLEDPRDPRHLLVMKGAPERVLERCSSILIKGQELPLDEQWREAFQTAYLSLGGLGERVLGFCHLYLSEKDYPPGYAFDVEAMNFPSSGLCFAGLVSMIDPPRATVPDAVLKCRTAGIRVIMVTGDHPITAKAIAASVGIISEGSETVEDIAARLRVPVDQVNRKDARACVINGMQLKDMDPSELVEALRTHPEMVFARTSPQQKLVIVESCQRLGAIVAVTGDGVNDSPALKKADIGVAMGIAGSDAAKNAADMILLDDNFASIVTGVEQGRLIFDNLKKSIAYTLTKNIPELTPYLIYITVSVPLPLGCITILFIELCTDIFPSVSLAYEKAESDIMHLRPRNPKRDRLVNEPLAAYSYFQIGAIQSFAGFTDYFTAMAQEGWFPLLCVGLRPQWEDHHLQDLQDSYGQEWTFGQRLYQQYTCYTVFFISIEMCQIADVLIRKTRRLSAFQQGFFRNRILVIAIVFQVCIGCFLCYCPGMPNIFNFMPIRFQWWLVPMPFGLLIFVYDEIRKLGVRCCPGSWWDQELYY
T1 sequence (P18597 whole entry partner): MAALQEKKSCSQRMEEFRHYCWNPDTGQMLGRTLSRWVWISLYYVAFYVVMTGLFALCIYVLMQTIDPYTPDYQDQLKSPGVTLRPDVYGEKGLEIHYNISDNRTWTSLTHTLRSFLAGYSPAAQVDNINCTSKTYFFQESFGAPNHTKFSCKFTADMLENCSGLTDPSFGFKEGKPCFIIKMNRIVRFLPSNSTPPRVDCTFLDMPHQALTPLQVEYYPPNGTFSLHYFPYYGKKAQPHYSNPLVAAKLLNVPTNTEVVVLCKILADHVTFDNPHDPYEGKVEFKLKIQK

Row | Structure (SMILES) | IC50 ([1]; pH 6.0) [µM] | IC50 ([1]; pH 7.4) [µM] | inhibition at 200 µM [2] [%] | inhibitory action (acid output) ([3]; 10 mg/kg) [%] | inhibitory action (acid output) ([3]; 30 mg/kg) [%] | Suppressive action (acid secretion amount) [4] [%] | Suppressive action (acid secretion amount) [5] [%] | MLD [6]
1 | COCCNc1ccccc1C[S+]([O-])c1ncc[nH]1 (stereo not shown) [Example 1, 2-[2-(2-methoxyethylamino)benzylsulfinyl]imidazole] | 43 | 180 | 73.1 | 75.9 | 94.5 | 89 |  | 
2 | CC(C)OCCNc1ccccc1C[S+]([O-])c1ncc[nH]1 (stereo not shown) [Example 2, 2-[2-(2-isopropoxyethylamino)benzylsulfinyl]imidazole] | 46 | 190 |  |  |  | 97 |  | 
3 | COCCNc1ccc(C)cc1C[S+]([O-])c1ncc[nH]1 (stereo not shown) [Example 3, 2-[2-(2-methoxyethylamino)-5-methylbenzylsulfinyl]imidazole] | 25 | > 300 |  |  |  | 85 | 100 | 
4 | COCCNc1cccc(C)c1C[S+]([O-])c1ncc[nH]1 (stereo not shown) [Example 4, 2-[2-(2-methoxyethylamino)-6-methylbenzylsulfinyl]imidazole] | 4.4 | 26 |  |  |  | 89 |  | 
5 | CCOCCNc1ccccc1C[S+]([O-])c1ncc[nH]1 (stereo not shown) [Example 5, 2-[2-(2-ethoxyethylamino)benzylsulfinyl]imidazole] | 22 | 53 |  |  |  | 98 |  | 
6 | COCCCNc1ccccc1C[S+]([O-])c1ncc[nH]1 (stereo not shown) [Example 6, 2-[2-(3-methoxypropylamino)benzylsulfinyl]imidazole] | 13 | 60 |  |  |  | 92 |  | 
7 | CCOCCNc1ccc(C)cc1C[S+]([O-])c1ncc[nH]1 (stereo not shown) [Example 7, 2-[2-(2-ethoxyethylamino)-5-methylbenzylsulfinyl] imidazole] | 18 | 94 |  |  |  |  |  | 
8 | COCCNc1cc(C)c(OC)c(C)c1C[S+]([O-])c1ncc[nH]1 (stereo not shown) [Example 8, 2-[4,6-dimethyl-5-methoxy-2-(2-methoxyethylamino)benzylsulfinyl]imidazole] | 0.46 | 11 |  |  |  |  | 100 | ≥ 1,000 mg/kg
